Values after ≈ are worked out from the molar mass of the structure shown. Where two headings read alike, the source gives them in different places.
Legend:
Escherichia coli = experiment: Broth microdilution antimicrobial assay, E. coli; type: cell-based; settings: Escherichia coli, read-out: MBC E. coli
Protocol: (§1) Exactly 1.5 mg of sodium;10-oxido-7-oxophenoxazin-10-ium-3-olate was dissolved in 100 mL of distilled water, vortexed, filtered, sterilised, and stored at 4 °C for a maximum of 14 days before being applied as a growth indicator. 1000 μM stock solution of Schiff bases (1–9) was prepared in DMSO.
(§2) Fungi (Aspergillus niger, Candida albicans), Gram-positive bacteria (Staphylococcus aureus, Enterococcus faecalis), and Gram-negative bacteria (Salmonella typhi, Escherichia coli).
(§3) Colonies from a 24 h culture agar plate were collected with a loop and transferred to a tube containing lysogeny broth (LB). The various suspensions were incubated at 37 °C and the size adjusted to 1.5 × 10^6 CFU/mL [27].
(§4) The antimicrobial activity of Schiff bases (1–9), was evaluated using 96-well broth microdilution method as described by de Rapper et al. (2013) and Akhalwaya et al. (2018) with slight modifications. Columns 1–11 was filled 50 µL LB, followed by the addition of 50 µL of Schiff base to column 1. Thereafter, 50 µL of Schiff bases from column 1 was transferred by multichannel pipette to columns 2–10, resulting in 50 µL Schiff bases per well. Column 11 contained 100 µL of diluted standardised inoculum, while Column 12 contained 100 µL of LB as a control to monitor sterility. Then, 50 µL of the microorganism suspension was then added to columns 1–10 and the control column 11. The plates were incubated at 37 °C for 24 h, followed by the addition of 30 µL of growth indicator solution and further incubated for 2 h for the observation of colour change. On completion of incubation, the columns with blue indicator colour were reported as the MIC (µM) values. The columns with a concentration higher than the MIC value were plated on nutrient agar to determine the minimum bactericidal and fungicidal concentrations.

α-glucosidase = experiment: α-Glucosidase inhibitory activity; type: biochemical; settings: Means ×10^2 ± SD from at least three experiments
Protocol: The inhibitory activity of Schiff bases (1-9) against α-glucosidase was assessed by the method previously described by […] et al. […] Then, approximately 0.2 mL of Schiff base solution was mixed with 1.0 mL of 50 mM sodium phosphate buffer (pH 6.9) and 50 μL of α-glucosidase solution (2 U/mL). Thereafter, incubated at 37 °C for 10 min, followed by the addition of exactly 50 μL of 0.7 mM p-nitrophenyl-α-D-glucopyranoside solution in 50 mM sodium phosphate buffer (pH 6.9) and further incubated for 30 min at 37 °C. The reaction was terminated by the addition of 2.0 mL solution of 0.5 M Na2CO3. 0.3 mL aliquot of the above mixture was mixed with 4.7 mL of distilled water and the absorbance measured at 405 nm. […] (6) α - glucosidase inhibition (%) = (Ae - ASB/Ae)100 where Ae is the absorbance of the enzyme solution after incubation and ASB is the absorbance after incubation of Schiff bases solution. The assay was performed in triplicate.

α-amylase = experiment: α-Amylase inhibitory activity; type: biochemical; settings: Means ×10^2 ± SD from at least three experiments
Protocol: The α-amylase inhibitory activity of Schiff bases (1–9) was evaluated by the method reported by Xiao et al. with slight modifications. Substrate solution is prepared by dissolving 1.0 g of starch in 50 mL of 0.4 M NaOH and heated at 100 °C for 5 min. The substrate solution was adjusted to a neutral pH by the addition of 0.1 M HCl, cooled on crushed ice and made to 100 mL in a standard volumetric flask with distilled water. […] Using a microplate, 40 μL substrate and 20 μL Schiff base solution were mixed, then preincubated at 37 °C for 3 min. Thereafter, 20 μL of 50 μg/mL α-amylase solution was dispensed into each well, and further incubated for 15 min. The reaction was terminated by the addition of 80 μL HCl (0.1 M); followed by 200 μL of 1 mM iodine solution, and the absorbances measured at 650 nm. Inhibitory activity was calculated from Equation (5):(5) α − amylase inhibition (%) = (A2 − A1/A4 − A3)100 where A1 is the absorbance of Schiff base, starch, and α-amylase solution after incubation, A2 is the absorbance of Schiff base and starch solution after incubation, A3 is the absorbance of starch and amylase solution after incubation, and A4 is the absorbance of a starch solution after incubation. Thereafter, the IC50 value was determined from the plot of % inhibition versus concentration.

Salmonella typhi = experiment: Broth microdilution antimicrobial assay, S. typhi; type: cell-based; settings: for MBC: Salmonella enterica, TYPHI, read-out: MBC S. typhi
Protocol: as §1, §2, §3, §4

Aspergillus niger = experiment: Broth microdilution antimicrobial assay, A. niger; type: cell-based
Protocol: as §1, §2, §3, §4

H2O2-scavenging activity = settings: absorbance at 230 nm; mean ± SD (n = 3)
Protocol: (§5) The antioxidant activities of Schiff bases (1–9) were determined by DPPH, ABTS^+, H2O2, ferric reducing power assays, and compared with 3,4,5-trihydroxybenzoic acid (10), 5-(1,2-dihydroxyethyl)-3,4-dihydroxyfuran-2(5H)-one (11), and 2-(3,4-dihydroxyphenyl)-3,5,7-trihydroxy-4H-chromen-4-one (12) (as controls).
According to the methods of Ruch et al., the H2O2 scavenging activity of compounds (1–12) was evaluated. To 100 µL aliquot of the test compounds was added 0.4 mL of 50 mM phosphate buffer followed by 0.6 mL of 2 mM H2O2 solution prepared in 50 mM phosphate buffer (pH 6.8). The absorbance of the mixture was measured at 230 nm, thereafter, the %H2O2 scavenging activity (Equation (4)) and IC50 (μM) of the compounds 1–12 was determined. All analyses were carried out in triplicate. (4) % H2O2 − scavenging activity = 100⌊(Abs. of H2O2 − Abs. of test compound)/(Abs. of H2O2)⌋

Enterococcus faecalis = experiment: Broth microdilution antimicrobial assay, E. faecalis; type: cell-based; settings: Enterococcus faecalis, read-out: MBC E. faecalis
Protocol: as §1, §2, §3, §4

Candida albicans = experiment: Broth microdilution antimicrobial assay, C. albicans; type: cell-based
Protocol: as §1, §2, §3, §4

Staphylococcus aureus = experiment: Broth microdilution antimicrobial assay, S. aureus; type: cell-based; settings: Staphylococcus aureus, read-out: MBC S. aureus
Protocol: as §1, §2, §3, §4

[1] = DPPH radical scavenging activity; settings: absorbance at 517 nm, 30 min; mean ± SD (n = 3)
Protocol: as §5
The scavenging activity of compounds (1–12) was evaluated by adding an ethanolic solution of DPPH (300 μL, 0.05 mM) and incubated for 30 min in the dark. After that, changes in the absorbance of the mixture were measured at 517 nm on a UV-Vis spectrophotometer. The percentage radical scavenging activities (%RSA) and half maximal inhibitory concentration (IC50) of the compounds were estimated from Equation (2) and by linear regression analysis, respectively. All studies were carried out in triplicate. (2) % RSA= 100⌊(Abs. of DPPH − Abs. of test compound)/(Abs. of DPPH)⌋

[2] = ABTS radical cation decolourisation assay; settings: absorbance at 734 nm, 30 min; mean ± SD (n = 3)
Protocol: as §5
A mixture of ABTS (960.2 mg) and potassium persulphate (165.6 mg) was dissolved in 250 mL of distilled water to generate the blue-green ABTS^+ solution. The ABTS solution was stored away in the dark at ambient temperature for 24 h to generate sufficient ABTS radical cation (ABTS^+), then the absorbance was adjusted to 0.9547 with distilled water. Precisely 40 µL solution of the compounds were added to 3 mL ABTS^+ solution and incubated at 298 K for 30 min in the dark. Changes in concentration of ABTS^+ were measured at 734 nm on a spectrophotometer. The degree of ABTS^+ decolourisation was a template for evaluating the percentage proton-donating potential (%PDP) of the test compounds [24]; estimated from Equation (3). The IC50 (μM) of the compounds were determined by linear regression analysis, and all analyses were carried out in triplicate. (3) % PDP = 100⌊(Abs. of ABTS ^+ − Abs. of test compound)/(Abs. of ABTS^+)⌋

[3] = tested on: Fungi (Aspergillus niger, Candida albicans); experiment: Broth microdilution MIC, antifungal (fungus not specified); type: cell-based; settings: read-out: MIC (antifungal)
Protocol: as §1, §2, §3
The antimicrobial activity of Schiff bases (1–9), was evaluated using 96-well broth microdilution method as described by de Rapper et al. (2013) and Akhalwaya et al. (2018) with slight modifications. Columns 1–11 was filled 50 µL LB, followed by the addition of 50 µL of Schiff base to column 1. Thereafter, 50 µL of Schiff bases from column 1 was transferred by multichannel pipette to columns 2–10, resulting in 50 µL Schiff bases per well. Column 11 contained 100 µL of diluted standardised inoculum, while Column 12 contained 100 µL of LB as a control to monitor sterility. Then, 50 µL of the microorganism suspension was then added to columns 1–10 and the control column 11. […]

SMILES	MBC (Escherichia coli)	melting point	IC50 (α-glucosidase)	IC50 (α-amylase)	MBC (Salmonella typhi)	MFC (Aspergillus niger; read-out: MFC A. niger)	IC50 (H2O2-scavenging activity)	MBC (Enterococcus faecalis)	MFC (Candida albicans; read-out: MFC C. albicans)	MBC (Staphylococcus aureus)	IC50 [1]	IC50 [2]	also measured
Oc1cc(N=Cc2ccccc2O)n[nH]1 [Compound 2, 3-(((2-hydroxyphenyl)methylidene)amino)-1H-pyrazol-5-ol]	4.31 µM (≈ 0.876 µg/mL)	370 °C	120 ± 51 µM	91 ± 9 µM	> 4.31 µM	> 4.31 µM	410 ± 6 µM	> 4.31 µM	> 4.31 µM	4.31 µM (≈ 0.876 µg/mL)	390 ± 5 µM	510 ± 5 µM	–
Oc1cc(N=Cc2ccccc2)n[nH]1 [Compound 3, 3-((phenylmethylidene)amino)-1H-pyrazol-5-ol]	2.67 µM (≈ 0.5 µg/mL)	266 °C	560 ± 82 µM	200 ± 74 µM	> 5.35 µM	> 5.35 µM	410 ± 8 µM	> 5.35 µM	> 5.35 µM	> 5.35 µM	360 ± 5 µM	450 ± 7 µM	MIC [3]: 0.67 µM (≈ 0.125 µg/mL)
O=[N+]([O-])c1ccc(C=Nc2ccc(O)cc2)cc1 [Compound 4, 4-(((4-nitrophenyl)methylidene)amino)phenol]	2.07 µM (≈ 0.501 µg/mL)	202 °C	1390 ± 91 µM	1380 ± 17 µM	–	–	370 ± 7 µM	–	–	–	290 ± 6 µM	370 ± 6 µM	MBC (Salmonella typhi; 24 h): > 4.31 µM; MFC (Aspergillus niger; 24 h, read-out: MFC A. niger): > 4.31 µM; MBC (Enterococcus faecalis; 24 h): > 4.31 µM; MFC (Candida albicans; 24 h, read-out: MFC C. albicans): > 4.31 µM; MBC (Staphylococcus aureus; 24 h, * = no bactericidal effect at the evaluated concentration, n = 3): 4.31 µM (≈ 1.04 µg/mL)
Oc1ccc(N=Cc2ccccc2O)cc1 [Compound 5, 4-(2-hydroxybenzylideneamino)phenol]	–	–	1380 ± 1250 µM	–	> 4.69 µM	> 4.69 µM	320 ± 6 µM	–	> 4.69 µM	> 4.69 µM	260 ± 5 µM	110 ± 5 µM	MBC (Escherichia coli; n = 3): 4.69 µM (≈ 1 µg/mL); MBC (Enterococcus faecalis; * = no bactericidal effect at the evaluated concentration, n = 3): 4.69 µM (≈ 1 µg/mL)
Oc1ccc(N=Cc2ccccc2)cc1 [Compound 6, 4-(benzylideneamino)phenol]	–	302 °C	1420 ± 1730 µM	1410 ± 17 µM	> 5.07 µM	> 5.07 µM	380 ± 5 µM	> 5.07 µM	> 5.07 µM	> 5.07 µM	380 ± 2 µM	260 ± 6 µM	MBC (Escherichia coli; n = 3): 2.54 µM (≈ 0.501 µg/mL)
O=S(=O)(O)c1cc(O)c(N=Cc2ccccc2O)c2ccccc12 [Compound 8, 4-(2-hydroxybenzylideneamino)-3-hydroxynaphthalene-1-sulphonic acid]	1.46 µM (≈ 0.501 µg/mL)	296 °C	500 ± 82 µM	420 ± 34 µM	> 2.92 µM	1.46 µM (≈ 0.501 µg/mL)	240 ± 17 µM	> 2.92 µM	1.46 µM (≈ 0.501 µg/mL)	> 2.92 µM	210 ± 5 µM	140 ± 5 µM	antibacterial activity (growth inhibition), S. typhi (Salmonella typhi): inhibited only the growth of S. typhi
O=S(=O)(O)c1cc(O)c(N=Cc2ccccc2)c2ccccc12 [Compound 9, 4-(benzylideneamino)-3-hydroxynaphthalene-1-sulphonic acid]	3.06 µM (≈ 1 µg/mL)	246 °C	660 ± 97 µM	561 ± 42 µM	> 3.06 µM	–	190 ± 11 µM	> 3.06 µM	–	> 3.06 µM	220 ± 6 µM	50 ± 4 µM	MFC (Aspergillus niger; * = no fungicidal effect at the evaluated concentration, n = 3, read-out: MFC A. niger): 1.53 µM (≈ 0.501 µg/mL); MFC (Candida albicans; * = no fungicidal effect at the evaluated concentration, n = 3, read-out: MFC C. albicans): 1.53 µM (≈ 0.501 µg/mL)
O=C(O)c1cc(O)c(O)c(O)c1 [Compound 10, 3,4,5-trihydroxybenzoic acid, reference compound]	–	–	–	–	–	–	460 ± 11 µM	–	–	–	420 ± 3 µM	580 ± 7 µM	–
O=C1OC(C(O)CO)C(O)=C1O (stereo not drawn) [Compound 11, 5-(1,2-dihydroxyethyl)-3,4-dihydroxyfuran-2(5H)-one, reference compound]	–	–	–	–	–	–	440 ± 7 µM	–	–	–	350 ± 5 µM	530 ± 6 µM	–
O=c1c(O)c(-c2ccc(O)c(O)c2)oc2cc(O)cc(O)c12 [Compound 12, 2-(3,4-dihydroxyphenyl)-3,5,7-trihydroxy-4H-chromen-4-one, reference compound]	–	–	–	–	–	–	270 ± 10 µM	–	–	–	240 ± 3 µM	270 ± 8 µM	–

— publication PMC6162693, “Investigation into the Thermal Response and Pharmacological Activity of Substituted Schiff Bases on α-Amylase and α-Glucosidase” (Antioxidants, 2018)
